Laboratory results from paper PMC12190436, “5-Ene-2-arylaminothiazol-4(5H)-ones Induce Apoptosis in Breast Cancer Cells” (Cells, 2025).

What was measured:
Assay type in all cases: cell-based
[1] = system: RXF 393
[2] = system: KM12
[3] = system: SR
[4] = system: RPMI-8226
[5] = system: Colon Cancer
[6] = system: MALME -3M
[7] = system: Ovarian Cancer
[8] = system: SN12C
[9] = system: SNB-75
[10] = system: HCT-116
[11] = system: SK-MEL-2
[12] = system: CCRF-CEM
[13] = system: DU-145
[14] = system: OVCAR-5
[15] = system: OVCAR-3
[16] = system: 786-0
[17] = system: T-47D
[18] = system: TK-10
[19] = system: NCI-H23
[20] = system: Leukemia
[21] = system: BT-549
[22] = system: A549/ATCC
[23] = system: MOLT-4
[24] = system: PC-3
[25] = system: SF-539
[26] = system: HCT-15
[27] = Homo sapiens, 48 h, read-out: LC50 (the source's name)

COc1cc(NC2=NC(=O)C(=Cc3c[nH]c4ccccc34)S2)cc(OC)c1OC [Les-6418, 5-((1H-Indol-3-yl)methylene)-2-((3,4,5-trimethoxyphenyl)amino)thiazol-4(5H)-one] was tested, and the GI50 ([1]; Homo sapiens, RXF 393, 48 h) was 1 µM, the CC50 ([1]; Homo sapiens, RXF 393, 48 h, read-out: LC50 (the source's name)) was 34 µM and the TGI ([1]; RXF 393, 48 h) was 5.80 µM. The “SI (TGI)” value ([1]; RXF 393, MG_MID_60/value) was 3.21, the GI50 ([2]; Homo sapiens, KM12, 48 h) was 0.977 µM and the CC50 ([2]; Homo sapiens, KM12, 48 h, read-out: LC50 (the source's name)) was 70.7 µM. For the same molecule, the TGI ([2]; KM12, 48 h) was 16.8 µM, the “SI (TGI)” value ([2]; KM12, MG_MID_60/value) was 1.11 and the TGI ([3]; 48 h) was 29.9 µM. For the same molecule, the GI50 ([3]; Homo sapiens, 48 h) was 0.394 µM, the CC50 [3, 27] was over 100 µM and the “SI (TGI)” value ([3]; MG_MID_60/value) was 0.62. For the same molecule, the GI50 ([4]; Homo sapiens, RPMI-8226, 48 h) was 5.73 µM, the CC50 ([4]; Homo sapiens, RPMI-8226, 48 h, read-out: LC50 (the source's name)) was over 100 µM and the TGI ([4]; RPMI-8226, 48 h) was over 100 µM. The “SI (TGI)” value ([4]; RPMI-8226, MG_MID_60/value) was 0.19, the “MG_MID TGI” value ([5]; Colon Cancer subpanel mean) was 15.5 µM and the “SI (MG_MID TGI)” value ([5]; Colon Cancer subpanel, MG_MID_60/value) was 1.20. For the same molecule, the GI50 ([5]; Homo sapiens, Colon Cancer subpanel mean, read-out: MG_MID GI50) was 2.48 µM, the CC50 ([5]; Homo sapiens, Colon Cancer subpanel mean, read-out: MG_MID LC50) was 55.6 µM and the TGI ([6]; 48 h) was 15.2 µM. The GI50 ([6]; Homo sapiens, 48 h) was 2.01 µM, the CC50 [6, 27] was 43.9 µM and the “SI (TGI)” value ([6]; MG_MID_60/value) was 1.22. For the same molecule, the GI50 ([7]; Homo sapiens, Ovarian Cancer subpanel mean, read-out: MG_MID GI50) was 4.61 µM, the CC50 ([7]; Homo sapiens, Ovarian Cancer subpanel mean, read-out: MG_MID LC50) was 50.5 µM and the “MG_MID TGI” value ([7]; Ovarian Cancer subpanel mean) was 16.7 µM. For the same molecule, the “SI (MG_MID TGI)” value ([7]; Ovarian Cancer subpanel, MG_MID_60/value) was 1.11, the Growth % ([8]; 10 μM, one dose, 48 h) was −88.00% and the TGI ([8]; 48 h) was 15.1 µM. The GI50 ([8]; Homo sapiens, 48 h) was 3.85 µM, the CC50 [8, 27] was 43.6 µM and the “SI (TGI)” value ([8]; MG_MID_60/value) was 1.23. The GI50 ([9]; Homo sapiens, SNB-75, 48 h) was 1.24 µM, the CC50 ([9]; Homo sapiens, SNB-75, 48 h, read-out: LC50 (the source's name)) was 11.9 µM and the TGI ([9]; SNB-75, 48 h) was 3.63 µM. The “SI (TGI)” value ([9]; SNB-75, MG_MID_60/value) was 5.12, the TGI ([10]; HCT-116, 48 h) was 10.2 µM and the “SI (TGI)” value ([10]; HCT-116, MG_MID_60/value) was 1.82. It also gave a GI50 ([10]; Homo sapiens, HCT-116, 48 h) of 1.1 µM, a CC50 ([10]; Homo sapiens, HCT-116, 48 h, read-out: LC50 (the source's name)) of 50.6 µM and a GI50 ([11]; Homo sapiens, SK-MEL-2, 48 h) of 1.45 µM. The CC50 ([11]; Homo sapiens, SK-MEL-2, 48 h, read-out: LC50 (the source's name)) was 43.1 µM, the TGI ([11]; SK-MEL-2, 48 h) was 12.2 µM and the “SI (TGI)” value ([11]; SK-MEL-2, MG_MID_60/value) was 1.52. The TGI ([12]; 48 h) was over 100 µM, the GI50 ([12]; Homo sapiens, 48 h) was 2.09 µM and the CC50 [12, 27] was over 100 µM. The “SI (TGI)” value ([12]; MG_MID_60/value) was 0.19, the TGI ([13]; DU-145, 48 h) was 17.2 µM and the “SI (TGI)” value ([13]; DU-145, MG_MID_60/value) was 1.08. For the same molecule, the GI50 ([13]; Homo sapiens, DU-145, 48 h) was 4.63 µM, the CC50 ([13]; Homo sapiens, DU-145, 48 h, read-out: LC50 (the source's name)) was 47.4 µM and the GI50 ([14]; Homo sapiens, OVCAR-5, 48 h) was 4.58 µM. The LC50 (concentration killing 50% of cells) ([14]; Homo sapiens, OVCAR-5, 48 h) was 44.1 µM, the TGI ([14]; OVCAR-5, 48 h) was 17.7 µM and the “SI (TGI)” value ([14]; OVCAR-5, MG_MID_60/value) was 1.05. The GI50 ([15]; Homo sapiens, OVCAR-3, 48 h) was 0.517 µM, the CC50 ([15]; Homo sapiens, OVCAR-3, 48 h, read-out: LC50 (the source's name)) was 34 µM and the Growth % ([15]; OVCAR-3, 10 μM, one dose, 48 h) was 76.96%. For the same molecule, the TGI ([15]; OVCAR-3, 48 h) was 5.32 µM, the “SI (TGI)” value ([15]; OVCAR-3, MG_MID_60/value) was 3.50 and the Growth % ([16]; 786-0, 10 μM, one dose, 48 h) was −73.06%. The TGI ([16]; 786-0, 48 h) was 11.9 µM, the “SI (TGI)” value ([16]; 786-0, MG_MID_60/value) was 1.56 and the GI50 ([16]; Homo sapiens, 786-0, 48 h) was 2.72 µM. For the same molecule, the CC50 ([16]; Homo sapiens, 786-0, 48 h, read-out: LC50 (the source's name)) was 55.7 µM, the TGI ([17]; 48 h) was 19.7 µM and the GI50 ([17]; Homo sapiens, T47D, 48 h) was 3.58 µM. The CC50 ([17]; Homo sapiens, T47D, 48 h, read-out: LC50 (the source's name)) was 61.2 µM, the “SI (TGI)” value ([17]; MG_MID_60/value) was 0.94 and the GI50 ([18]; Homo sapiens, TK-10, 48 h) was 8.56 µM. For the same molecule, the CC50 ([18]; Homo sapiens, TK-10, 48 h, read-out: LC50 (the source's name)) was 55.6 µM, the TGI ([18]; TK-10, 48 h) was 22.8 µM and the “SI (TGI)” value ([18]; TK-10, MG_MID_60/value) was 0.82. The GI50 ([19]; Homo sapiens, NCI-H23, 48 h) was 5.33 µM, the CC50 ([19]; Homo sapiens, NCI-H23, 48 h, read-out: LC50 (the source's name)) was 54 µM and the TGI ([19]; NCI-H23, 48 h) was 21.1 µM. The “SI (TGI)” value ([19]; NCI-H23, MG_MID_60/value) was 0.88, the GI50 ([20]; Homo sapiens, Leukemia subpanel mean, read-out: MG_MID GI50) was 2.04 µM and the CC50 ([20]; Homo sapiens, Leukemia subpanel mean, read-out: MG_MID LC50) was over 100 µM. The “MG_MID TGI” value ([20]; Leukemia subpanel mean) was 49.7 µM, the “SI (MG_MID TGI)” value ([20]; Leukemia subpanel, MG_MID_60/value) was 0.37 and the TGI ([21]; BT-549, 48 h) was 10.7 µM. For the same molecule, the “SI (TGI)” value ([21]; BT-549, MG_MID_60/value) was 1.74, the GI50 ([21]; Homo sapiens, BT-549, 48 h) was 0.81 µM and the CC50 ([21]; Homo sapiens, BT-549, 48 h, read-out: LC50 (the source's name)) was 39.2 µM. The TGI ([22]; 48 h) was 16.5 µM, the GI50 ([22]; Homo sapiens, 48 h) was 2.84 µM and the LC50 ([22]; Homo sapiens, 48 h) was 73.6 µM. The “SI (TGI)” value ([22]; MG_MID_60/value) was 1.13, the GI50 ([23]; Homo sapiens, MOLT-4, 48 h) was 2.63 µM and the CC50 ([23]; Homo sapiens, MOLT-4, 48 h, read-out: LC50 (the source's name)) was over 100 µM. For the same molecule, the TGI ([23]; MOLT-4, 48 h) was 26.0 µM, the “SI (GI50)” value ([23]; MOLT-4, MG_MID_60/value) was 1.24 and the “SI (TGI)” value ([23]; MOLT-4, MG_MID_60/value) was 0.72. The GI50 ([24]; Homo sapiens, PC-3, 48 h) was 2.59 µM, the CC50 ([24]; Homo sapiens, PC-3, 48 h, read-out: LC50 (the source's name)) was 94.2 µM and the TGI ([24]; PC-3, 48 h) was 22.6 µM. For the same molecule, the “SI (TGI)” value ([24]; PC-3, MG_MID_60/value) was 0.82, the GI50 ([25]; Homo sapiens, SF-539, 48 h) was 2.49 µM and the CC50 ([25]; Homo sapiens, SF-539, 48 h, read-out: LC50 (the source's name)) was 35.5 µM. The Growth % ([25]; SF-539, 10 μM, one dose, 48 h) was −85.30%, the TGI ([25]; SF-539, 48 h) was 9.95 µM and the “SI (TGI)” value ([25]; SF-539, MG_MID_60/value) was 1.87. For the same molecule, the TGI ([26]; HCT-15, 48 h) was 12.4 µM, the “SI (TGI)” value ([26]; HCT-15, MG_MID_60/value) was 1.50 and the GI50 ([26]; Homo sapiens, HCT-15, 48 h) was 1.79 µM. It also gave a CC50 ([26]; Homo sapiens, HCT-15, 48 h, read-out: LC50 (the source's name)) of 37.7 µM.
